Data taken from ChEMBL document CHEMBL3872220, “Amphiphilic xanthones as a potent chemical entity of anti-mycobacterial agents with membrane-targeting properties” (Eur J Med Chem, 2016).
In brackets after ≈: the same amount, converted by molar mass.

Assays:
[1] = tested on: Mycolicibacterium smegmatis; test: Antimycobacterial activity against Mycobacterium smegmatis MC2 155 after 24 hrs by broth dilution assay; format: functional; settings: str. MC2 155, 24 h
[2] = molecular target: CYP3A4 (Homo sapiens, UniProt P08684); test: Inhibition of CYP3A4 in human liver microsomes at 10 uM using midazolam as substrate preincubated for 5 min followed by NADPH addition measured after 10 mins by LC-MS/MS method relative to control; format: ADME; settings: probe midazolam
Sequence of CYP3A4 (P08684 whole entry): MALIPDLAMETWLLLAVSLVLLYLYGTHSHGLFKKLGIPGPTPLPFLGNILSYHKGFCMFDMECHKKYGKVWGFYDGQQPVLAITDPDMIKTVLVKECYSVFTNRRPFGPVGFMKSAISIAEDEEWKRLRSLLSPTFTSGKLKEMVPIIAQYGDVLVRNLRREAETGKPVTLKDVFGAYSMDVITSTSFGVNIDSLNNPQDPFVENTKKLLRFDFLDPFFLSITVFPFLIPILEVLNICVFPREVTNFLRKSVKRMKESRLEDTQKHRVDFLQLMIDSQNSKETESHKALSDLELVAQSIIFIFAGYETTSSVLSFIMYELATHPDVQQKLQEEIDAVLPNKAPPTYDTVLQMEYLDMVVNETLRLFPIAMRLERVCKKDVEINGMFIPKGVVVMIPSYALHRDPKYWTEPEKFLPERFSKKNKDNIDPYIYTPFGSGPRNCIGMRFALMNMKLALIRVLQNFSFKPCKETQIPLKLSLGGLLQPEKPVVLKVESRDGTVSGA

[3] = Selectivity index, ratio of CC50 for human corneal fibroblasts assessed as reduction in ATP level to MIC90 for Mycobacterium smegmatis MC2 155
[4] = Half life in rat liver microsomes at 1 uM preincubated for 5 mins followed by NADPH addition measured by LC-MS/MS method; format: ADME
[5] = Hemolytic activity against New Zealand white rabbit RBC assessed as hemoglobin release measured after 1 hr; format: ADME, cell-based, Oryctolagus cuniculus, Erythrocyte; settings: red blood cells
[6] = Selectivity index, ratio of CC50 for human corneal fibroblasts assessed as reduction in ATP level to MIC90 for Mycobacterium bovis BCG ATCC 35734
[7] = Drug metabolism in rat liver microsomes at 1 uM preincubated for 5 mins followed by NADPH addition measured up to 30 mins by LC-MS/MS method; format: ADME; settings: read-out: Drug metabolism
[8] = Cytotoxicity against human corneal fibroblasts assessed as reduction in ATP level measured after 4 hrs by Celltiter-Glo luminescent assay; format: toxicity, Corneal fibroblast
[9] = molecular target: CYP2D6 (Homo sapiens, UniProt P10635); test: Inhibition of CYP2D6 in human liver microsomes at 10 uM using bufuralol as substrate preincubated for 5 min followed by NADPH addition measured after 10 mins by LC-MS/MS method relative to control; format: ADME; settings: probe bufuralol
Sequence of CYP2D6 (P10635 whole entry): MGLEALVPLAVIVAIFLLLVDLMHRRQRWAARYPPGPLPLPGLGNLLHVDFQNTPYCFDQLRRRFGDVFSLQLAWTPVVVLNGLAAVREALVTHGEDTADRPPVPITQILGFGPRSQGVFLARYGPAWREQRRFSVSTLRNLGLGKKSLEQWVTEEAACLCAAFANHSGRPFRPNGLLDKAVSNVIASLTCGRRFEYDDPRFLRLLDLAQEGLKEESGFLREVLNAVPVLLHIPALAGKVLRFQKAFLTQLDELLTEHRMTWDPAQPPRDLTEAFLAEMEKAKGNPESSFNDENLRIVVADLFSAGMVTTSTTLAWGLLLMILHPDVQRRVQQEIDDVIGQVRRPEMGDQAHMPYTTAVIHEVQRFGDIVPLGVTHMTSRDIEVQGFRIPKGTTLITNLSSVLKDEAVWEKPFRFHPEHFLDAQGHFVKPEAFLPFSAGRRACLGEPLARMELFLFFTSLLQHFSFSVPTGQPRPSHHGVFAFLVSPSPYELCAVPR

[10] = Cytotoxicity against human corneal fibroblasts assessed as increase in LDH level measured after 4 hrs by Cytotox-one […] assay; format: toxicity, Corneal fibroblast
[11] = molecular target: CYP2C19 (Homo sapiens, UniProt P33261); test: Inhibition of CYP2C19 in human liver microsomes at 10 uM using omeprazole as substrate preincubated for 5 min followed by NADPH addition measured after 10 mins by LC-MS/MS method relative to control; format: ADME; settings: probe omeprazole
Sequence of CYP2C19 (P33261 whole entry): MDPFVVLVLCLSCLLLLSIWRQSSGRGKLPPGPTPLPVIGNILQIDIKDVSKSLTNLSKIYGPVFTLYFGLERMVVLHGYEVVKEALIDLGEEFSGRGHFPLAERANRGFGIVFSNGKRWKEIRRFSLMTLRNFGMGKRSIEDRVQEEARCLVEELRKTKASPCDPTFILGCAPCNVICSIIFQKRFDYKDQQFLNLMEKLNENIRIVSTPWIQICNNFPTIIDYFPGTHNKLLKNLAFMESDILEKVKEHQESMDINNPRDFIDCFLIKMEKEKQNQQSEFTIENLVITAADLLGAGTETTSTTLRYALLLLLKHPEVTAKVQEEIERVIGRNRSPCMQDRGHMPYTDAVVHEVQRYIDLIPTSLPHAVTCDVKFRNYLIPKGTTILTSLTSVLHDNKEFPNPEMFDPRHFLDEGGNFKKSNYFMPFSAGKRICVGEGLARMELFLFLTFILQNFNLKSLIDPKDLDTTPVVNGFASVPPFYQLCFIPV

[12] = Oral bioavailability in Sprague-Dawley rat; format: ADME, organism-based; settings: in vivo
[13] = tested on: Staphylococcus aureus; test: Antibacterial activity against methicillin-resistant Staphylococcus aureus isolate DM21455; format: functional
[14] = tested on: Staphylococcus aureus; test: Antibacterial activity against Staphylococcus aureus isolate DM4001; format: functional
[15] = tested on: Mycolicibacterium smegmatis; test: Bactericidal activity against Mycobacterium smegmatis MC2 155 assessed as log reduction in bacterial colonies up to 8 times MIC measured after 24 hrs by time-kill assay; format: functional, str. MC2 155
[16] = tested on: Mycolicibacterium smegmatis; test: Antimycobacterial activity against Mycobacterium smegmatis MC2 155 assessed as inhibition of respiratory ATP synthesis by measuring ATP level at 4 times MIC measured after 1 hr by luciferase reporter gene assay (reference value: 90.6%); format: functional, str. MC2 155; parameters: scale not given: the % may be the effect or the level left
[17] = tested on: Mycolicibacterium smegmatis; test: Antimycobacterial activity against Mycobacterium smegmatis MC2 155 assessed as inhibition of respiratory ATP synthesis by measuring ATP level at 4 times MIC measured after 6 hrs by luciferase reporter gene assay (reference value: 152%); format: functional, str. MC2 155; parameters: scale not given: the % may be the effect or the level left
[18] = tested on: Mycolicibacterium smegmatis; test: Antimycobacterial activity against Mycobacterium smegmatis MC2 155 assessed as inhibition of respiratory ATP synthesis by measuring ATP level at 4 times MIC measured after 6 hrs by luciferase reporter gene assay (reference value: 212.7%); format: functional, str. MC2 155; parameters: scale not given: the % may be the effect or the level left
[19] = tested on: Mycolicibacterium smegmatis; test: Antimycobacterial activity against Mycobacterium smegmatis MC2 155 assessed as inhibition of respiratory ATP synthesis by measuring ATP level at 2 times MIC measured after 3 hrs by luciferase reporter gene assay (reference value: 158.3%); format: functional, str. MC2 155; parameters: scale not given: the % may be the effect or the level left
[20] = tested on: Mycolicibacterium smegmatis; test: Antimycobacterial activity against Mycobacterium smegmatis MC2 155 assessed as inhibition of respiratory ATP synthesis by measuring ATP level at 800 ug/ml measured after 9 hrs by luciferase […] assay (reference value: 212.7%); format: functional, str. MC2 155; parameters: scale not given: the % may be the effect or the level left
[21] = tested on: Mycolicibacterium smegmatis; test: Antimycobacterial activity against Mycobacterium smegmatis MC2 155 assessed as inhibition of respiratory ATP synthesis by measuring ATP level at 800 ug/ml measured after 1 hr by luciferase reporter gene assay (reference value: 90.6%); format: functional, str. MC2 155; parameters: scale not given: the % may be the effect or the level left
[22] = tested on: Mycolicibacterium smegmatis; test: Antimycobacterial activity against Mycobacterium smegmatis MC2 155 assessed as inhibition of respiratory ATP synthesis by measuring ATP level at 800 ug/ml measured after 6 hrs by luciferase reporter gene assay (reference value: 152%); format: functional, str. MC2 155; parameters: scale not given: the % may be the effect or the level left
[23] = tested on: Mycolicibacterium smegmatis; test: Antimycobacterial activity against Mycobacterium smegmatis MC2 155 assessed as inhibition of respiratory ATP synthesis by measuring ATP level at 800 ug/ml measured after 3 hrs by luciferase reporter gene assay (reference value: 158.3%); format: functional, str. MC2 155; parameters: scale not given: the % may be the effect or the level left

## CCN(CC)CCCCCCCOc1cc2oc3cc(OCCCCCCCN(CC)CC)c(OC)c(CC=C(C)C)c3c(=O)c2c(O)c1CC=C(C)C
[1]
  MIC90: 6.4 µM (≈ 4.79 µg/mL)
[2]
  inhibition at 10 min, 10 µM: 3%
[3]
  Selectivity Index: 15 - 40
[4]
  half-life at 1 µM: > 30 min
[5]
  HC50 at 1 h: 86 µM
[6]
  Selectivity Index: 15 - 40
[7]
  metabolised at 0.5 h, 1 µM: 13.9%
[8]
  CC50 at 4 h: 95.1 µM
[9]
  inhibition at 10 min, 10 µM: 6%
[10]
  CC50 at 4 h: > 150 µM
[11]
  inhibition at 10 min, 10 µM: 16%

## CO[C@H]1/C=C/O[C@@]2(C)Oc3c(C)c(O)c4c(c3C2=O)C2=NC3(CCN(CC(C)C)CC3)NC2=C(NC(=O)/C(C)=C\C=C\[C@H](C)[C@H](O)[C@@H](C)[C@@H](O)[C@@H](C)[C@H](OC(C)=O)[C@@H]1C)C4=O [RIFABUTIN]
[12]
  bioavailability: 20%

## COc1c(OCCCCN2CCOCC2)cc2oc3cc(OCCCCN4CCOCC4)c(CC=C(C)C)c(OCCCCN4CCOCC4)c3c(=O)c2c1CC=C(C)C
[1]
  MIC90: > 30 µM
[5]
  HC50 at 1 h: > 240 µM

## CCCCN(CC)CCCCOc1cc2oc3cc(OCCCCN(CC)CCCC)c(OC)c(CC=C(C)C)c3c(=O)c2c(O)c1CC=C(C)C
[1]
  MIC90: > 30 µM
[5]
  HC50 at 1 h: > 277 µM

## COc1c(OCC(O)CNCCNCCNCCN)cc2oc3cc(OCC(O)CNCCNCCNCCN)c(CC=C(C)C)c(O)c3c(=O)c2c1CC=C(C)C (stereo unspecified)
[1]
  MIC90: > 30 µM
[13]
  MIC: 15 µM (≈ 12.2 µg/mL)
[14]
  MIC: 15 µM (≈ 12.2 µg/mL)
[5]
  HC50 at 1 h: 155 µM

## CCN(CC)CCCCOc1ccc2c(=O)c3c(O)cc(OCCCCN(CC)CC)cc3oc2c1
[1]
  MIC90: > 30 µM
[5]
  HC50 at 1 h: > 401 µM

## NNC(=O)c1ccncc1 [ISONIAZID]
[1]
  MIC90: 15 µM (≈ 2.06 µg/mL)
[15]
  Activity: 1.2

## CCN(CC)CC(O)COc1cc2oc3cc(OCC(O)CN(CC)CC)c(OC)c(CC=C(C)C)c3c(=O)c2c(O)c1CC=C(C)C (stereo unspecified)
[1]
  MIC90: 6.4 µM (≈ 4.28 µg/mL)
[5]
  HC50 at 1 h: 108 µM

## COc1c(OCC(O)CNC(CO)(CO)CO)cc2oc3cc(OCC(O)CNC(CO)(CO)CO)c(CC=C(C)C)c(O)c3c(=O)c2c1CC=C(C)C (stereo unspecified)
[1]
  MIC90: 26 µM (≈ 19.9 µg/mL)
[5]
  HC50 at 1 h: 33.2 µM

## CN[C@@H]1[C@H](O[C@H]2[C@H](O[C@H]3[C@H](O)[C@@H](O)[C@H](N=C(N)N)[C@@H](O)[C@@H]3N=C(N)N)O[C@@H](C)[C@]2(O)C=O)O[C@@H](CO)[C@H](O)[C@H]1O [STREPTOMYCIN]
[1]
  MIC90: 0.625 µM (≈ 0.363 µg/mL)
[16]
  Activity: 114.4%
[17]
  Activity: 59.9%
[18]
  Activity: 75.7%
[19]
  Activity: 75.7%

## COC(=O)C(Cc1cnc[nH]1)NC(=O)COc1cc2oc3cc(OCC(=O)NC(Cc4cnc[nH]4)C(=O)OC)c(OC)c(CC=C(C)C)c3c(=O)c2c(O)c1CC=C(C)C (stereo unspecified)
[1]
  MIC90: > 30 µM
[5]
  HC50 at 1 h: > 241 µM

## COc1c(OCCCCN(C)C)cc2oc3cc(OCCCCN(C)C)c(CCC(C)C)c(O)c3c(=O)c2c1CCC(C)C
[1]
  MIC90: 6.4 µM (≈ 3.92 µg/mL)

## CCN(CC)CCCCOc1cc2oc3cc(OCCCCN(CC)CC)c(OC)c(CCC(C)C)c3c(=O)c2c(O)c1CCC(C)C
[1]
  MIC90: 6.4 µM (≈ 4.28 µg/mL)

## C(=NC1CCCCC1)=NC1CCCCC1 [DICYCLOHEXYLCARBODIIMIDE]
[20]
  Activity: 13.3%
[21]
  Activity: 7%
[22]
  Activity: 11.1%
[23]
  Activity: 6.7%
